# Assay results published in US6638956B2, “Pesticidal 1-arylpyrazoles” (Rhone-Poulenc, Inc., priority 1996, dated 2003).
# Tests used:
# [1] = system: Lucilia sericata, sleep blow fly; conditions: disclosed in WO 92/13451; cited from earlier work
melting point,Structure (SMILES),activity against Lucilia sericata [1]
,"N#Cc1nc(-c2c(C=NO)nn(-c3c(Cl)cc(C(F)(F)F)cc3Cl)c2Cl)[nH]c1C#N [5-chloro-1-[2,6-dichloro-4-(trifluoromethyl)phenyl]-4-(4,5-dicyano-1H-imadazol-2-yl)-3-hydroxyiminomethyl-1H-pyrazole]",activity against a single species
150 to 151 °C,"C[S+]([O-])CCNc1c([S+](C)[O-])c(C(=N)NO)nn1-c1c(Cl)cc(C(F)(F)F)cc1Cl (centres unmarked) [Compound 65, 1-[2,6-Dichloro-4-(trifluoromethyl)phenyl]-4-methylsulfinyl-5-[2-(methylsulfinyl)ethylamino]-N-hydroxy-1H-pyrazole-3-carboximidamide]",
158 to 161 °C,"CCNc1c([S+](C)[O-])c(C=NO)nn1-c1c(Cl)cc(C(F)(F)F)cc1Cl (centres unmarked) [Compound 2, 1-[2,6-Dichloro-4-(trifluoromethyl)phenyl]-5-ethylamino-4-methylsulfinyl-1H-pyrazole-3-carboxaldehyde oxime]",
170 to 175 °C,"CCSc1c(C(=N)NO)nn(-c2c(Cl)cc(C(F)(F)F)cc2Cl)c1N [Compound 43, 5-Amino-1-[2,6-dichloro-4-(trifluoromethyl)phenyl]-N-hydroxy-4-ethylthio-1H-pyrazole-3-carboximidamide]",
140 to 145 °C,"CONC(=N)c1nn(-c2c(Cl)cc(C(F)(F)F)cc2Cl)c(N)c1[S+](C)[O-] (centres unmarked) [Compound 49, 5-Amino-1-[2,6-dichloro-4-(trifluoromethyl)phenyl]-N-methoxy-4-methylsulfinyl-1H-pyrazole-3-carboximidamide]",
198 to 200 °C,"C[S+]([O-])c1c(C(=N)NO)nn(-c2c(Cl)cc(OC(F)(F)F)cc2Cl)c1N (centres unmarked) [Compound 45, 5-Amino-1-[2,6-dichloro-4-(trifluoromethoxy)phenyl]-N-hydroxy-4-methylsulfinyl-1H-pyrazole-3-carboximidamide]",
194 to 196 °C,"C#CCNc1c([S+](C)[O-])c(C(=N)NO)nn1-c1c(Cl)cc(C(F)(F)F)cc1Cl (centres unmarked) [Compound 67, 1-[2,6-Dichloro-4-(trifluoromethyl)phenyl]-4-methylsulfinyl-5-[(prop-2-ynyl)amino]-N-hydroxy-1H-pyrazole-3-carboximidamide]",
155 to 157 °C,"CCSc1c(C=NO)nn(-c2c(Cl)cc(C(F)(F)F)cc2Cl)c1C [Compound 33, 1-[2,6-Dichloro-4-(trifluoromethyl)phenyl]-4-ethylthio-5-methyl-1H-pyrazole-3-carboxaldehyde oxime]",
109 to 111 °C,"CCS(=O)(=O)c1c(C(=N)NO)nn(-c2c(Cl)cc(C(F)(F)F)cc2Cl)c1N [Compound 48, 5-Amino-1-[2,6-dichloro-4-(trifluoromethyl)phenyl]-N-hydroxy-4-ethylsulfonyl-1H-pyrazole-3-carboximidamide]",
122 °C,"CCCCCCCC(=O)NNC(=N)c1nn(-c2c(Cl)cc(C(F)(F)F)cc2Cl)c(N)c1[S+](C)[O-] (centres unmarked) [Compound 71, 5-Amino-1-[2,6-dichloro-4-(trifluoromethyl)phenyl]-4-methylsulfinyl-N-(n-heptylcarbonyl)amino-1H-pyrazole-3-carboximidamide]",
171 to 173 °C,"COC(=O)ON=Cc1nn(-c2c(Cl)cc(C(F)(F)F)cc2Cl)c(N)c1SC [Compound 15, 5-Amino-1-[2,6-dichloro-4-(trifluoromethyl)phenyl]-4-methylthio-1H-pyrazole-3-carboxaldehyde O-(methoxycarbonyl)oxime]",
119 to 120 °C,"C[S+]([O-])c1c(C(=N)NO)nn(-c2c(Cl)cc(C(F)(F)F)cc2Cl)c1NCC(N)=O (centres unmarked) [Compound 59, 5-(Aminocarbonylmethylamino)-1-[2,6-dichloro-4-(trifluoromethyl)phenyl]-N-hydroxy-4-methylsulfinyl-1H-pyrazole-3-carboximidamide]",
173 to 175 °C,"CC[S+]([O-])CCNc1c([S+]([O-])CC)c(C(=N)NO)nn1-c1c(Cl)cc(C(F)(F)F)cc1Cl (centres unmarked) [Compound 66, 1-[2,6-Dichloro-4-(trifluoromethyl)phenyl]-4-ethylsulfinyl-5-[2-(ethylsulfinyl)ethylamino]-N-hydroxy-1H-pyrazole-3-carboximidamide]",
209.5 to 211 °C (dec.),"CS(=O)(=O)c1c(C=NO)nn(-c2c(Cl)cc(C(F)(F)F)cc2Cl)c1N [Compound 16, 5-Amino-1-[2,6-dichloro-4-(trifluoromethyl)phenyl]-4-methylsulfonyl-1H-pyrazole-3-carboxaldehyde oxime]",
212 to 215 °C,"N=C(NO)c1nn(-c2c(Cl)cc(C(F)(F)F)cc2Cl)c(N)c1[S+]([O-])CCF (centres unmarked) [Compound 51, 5-Amino-1-[2,6-dichloro-4-(trifluoromethyl)phenyl]-N-hydroxy-4-(2-fluoroethylsulfinyl)-1H-pyrazole-3-carboximidamide]",
68 to 71 °C,"CC(=NO)c1nn(-c2c(Cl)cc(C(F)(F)F)cc2Cl)c(N)c1[S+](C)[O-] (centres unmarked) [Compound 39, 3-Acetyl-5-amino-1-[2,6-dichloro-4-(trifluoromethyl)phenyl]-4-methylsulfinyl-1H-pyrazole oxime]",
204 to 206 °C,"CC[S+]([O-])c1c(C=NO)nn(-c2c(Cl)cc(OC(F)(F)F)cc2Cl)c1N (centres unmarked) [Compound 37, 5-Amino-1-[2,6-dichloro-4-(trifluoromethoxy)phenyl]-4-ethylsulfinyl-1H-pyrazole-3-carboxaldehyde oxime]",
144 to 146 °C,"C[S+]([O-])c1c(C=NO)nn(-c2c(Cl)cc(OC(F)(F)F)cc2Cl)c1N (centres unmarked) [Compound 4, 5-Amino-1-[2,6-dichloro-4-(trifluoromethoxy)phenyl]-4-methylsulfinyl-1H-pyrazole-3-carboxaldehyde oxime]",
205.5 to 206.5 °C,"CSc1c(C=NOC(C)=O)nn(-c2c(Cl)cc(C(F)(F)F)cc2Cl)c1N [Compound 14, 5-Amino-1-[2,6-dichloro-4-(trifluoromethyl)phenyl]-4-methylthio-1H-pyrazole-3-carboxaldehyde O-(acetyl)oxime]",
237 to 238 °C,"C[S+]([O-])c1c(C(=N)NO)nn(-c2c(Cl)cc(C(F)(F)F)cc2Br)c1N (centres unmarked) [Compound 63, 5-Amino-1-[2-bromo-6-chloro-4-(trifluoromethyl)phenyl]-4-methylsulfinyl-N-hydroxy-1H-pyrazole-3-carboximidamide]",
146 to 147 °C,CNC(=O)ON=Cc1nn(-c2c(Cl)cc(C(F)(F)F)cc2Cl)c(N)c1[S+](C)[O-] (centres unmarked),
108 to 109 °C,"CC[S+]([O-])c1c(C(=N)NO)nn(-c2c(Cl)cc(C(F)(F)F)cc2Cl)c1NCC[S+](C)[O-] (centres unmarked) [Compound 64, 1-[2,6-Dichloro-4-(trifluoromethyl)phenyl]-4-ethylsulfinyl-5-[2-(methylsulfinyl)ethylamino]-N-hydroxy-1H-pyrazole-3-carboximidamide]",
160 to 162.5 °C,"CSc1c(C=NO)nn(-c2c(Cl)cc(C(F)(F)F)cc2Cl)c1C [Compound 29, 1-[2,6-Dichloro-4-(trifluoromethyl)phenyl]-5-methyl-4-methylthio-1H-pyrazole-3-carboxaldehyde oxime]",
136 to 146 °C,"Nc1c(C(F)(F)F)c(C=NO)nn1-c1c(Cl)cc(C(F)(F)F)cc1Cl [Compound 38, 5-Amino-1-[2,6-dichloro-4-(trifluoromethyl)phenyl]-4-trifluoromethyl-1H-pyrazole-3-carboxaldehyde oxime]",
192 to 193 °C,"CCNc1c([S+](C)[O-])c(C(=N)NO)nn1-c1c(Cl)cc(C(F)(F)F)cc1Cl (centres unmarked) [Compound 56, 1-[2,6-Dichloro-4-(trifluoromethyl)phenyl]-5-ethylamino-N-hydroxy-4-methylsulfinyl-1H-pyrazole-3-carboximidamide]",
68 to 72 °C,"N=C(NO)c1nn(-c2c(Cl)cc(C(F)(F)F)cc2Cl)c(C=NO)c1SC(F)(F)F [Compound 23, 1-[2,6-Dichloro-4-(trifluoromethyl)phenyl]-N-hydroxy-5-hydroxyiminomethyl-4-trifluoromethylthio-1H-pyrazole-3-carboximidamide]",
